From ChEMBL document CHEMBL1201862, “PubChem BioAssay data set” (2004) come the findings set out here.

Test [1] addresses NAD-dependent protein deacylase sirtuin-5, mitochondrial (Homo sapiens, UniProt Q9NXA8). Nature of the test: sirtuin-5 deacylation blockers, concentration series – biochemical, fluorescence imaging, cherry-pick, set 5, dose response (AID 720591).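 Also: desuccinylation of succinyl peptide AMC substrate read as fluorescence after trypsin release; potency of inhibitors that lower fluorescence and may act on trypsin instead.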
A short description of test [2]: blockers of HIV-1 envelope-mediated cell-cell fusion – cherry-pick, dose response (AID 652057). The format is functional, cell-based.
Test [3] is described as follows: viability loss in CEM21 cells – cell-based, CellTiter-Glo luminescence, cherry-picked, cytotoxicity control for viral fusion inhibitor project, dose response (AID 652042).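 Also: potency for signal decrease meaning cytotoxicity.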 The format is functional.
Test [4] is described as follows: blockers of HIV-1 ZM109 envelope-driven cell-cell fusion – HeLa effector, CEM target cells, luciferase, cherry-pick, dose response (AID 652058).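 Also: luciferase signal from HIV-1 Env mediated cell-cell fusion of effector and target cells.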 The format is functional, cell-based.
A short description of test [5]: off-target signal loss in HeLa-CEM21 co-culture – HeLa F-luc CTL cells, cherry-picked, counter-screen for HIV-1 Env fusion inhibitor project, dose response (AID 652040).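 Also: potency for signal decrease marking cytotoxic or nonspecific inhibition.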 The format is functional, cell-based. In general terms: A counterscreen serves to expose hits that act by an unwanted route or on another target.
Test [6] is described as follows: HIV-1 AD8 envelope cell-cell fusion blockers – cherry-pick, dose response (AID 652062).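 Also: luciferase signal from cell-cell fusion driven by HIV-1 clade B AD8 Env; potency is for inhibitors of fusion seen as a drop in luminescence.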 Format: functional, cell-based.
For test [7], the system named is HEK293. Kind of test: cells. Particulars: Homo sapiens.
Test [8] relates to HEK293. Nature of the test: cells. The note with it: Homo sapiens. The source holds these as a separate data set.
The nature of test [9]: growth inhibition of yeast DHODH-expressing 3D7 parasites – SYBR Green, dry powder samples, dose response (AID 1159570).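 Also: parasite growth measured after 72 hours of compound exposure.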 The format is functional, cell-based.
Test [10] in a line: toxicity to human HepG2 hepatoma cells – cell-based, plate reader, dry powder samples, cytotoxicity control, dose response (AID 1159569).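 Also: inhibitor potency with signal falling toward the positive control level.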 The format is functional.
Test [11] in a line: P. falciparum Dd2 growth inhibitors, dose response, SYBR Green, cherry-picked samples (AID 1159567). Format: functional, cell-based.
A short description of test [12]: Dd2 malaria parasite growth inhibition potency – SYBR Green, dry powder samples, dose response (AID 1159566).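 Also: potency for growth inhibition with lower SYBR green DNA signal.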 The format is functional, cell-based.
A short description of test [13]: growth inhibition of PfATP4-mutant resistant parasites – NITD609-resistant line, SYBR Green, dry powder, dose response (AID 1159571).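 Also: parasites synchronized at ring stage by sorbitol before testing.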 The format is functional, cell-based.
Test [14] is described as follows: potency of ADAM10 substrate cleavage blockers – biochemical, QFRET, dose response (AID 743254).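 Also: ADAM10 enzyme with the DM2 quenched FRET peptide as substrate; EDANS fluorescence gain as the protease cuts the substrate; inhibitor potency against ADAM10 proteolytic activity.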
Test [15] has as its target 1-phosphatidylinositol 4,5-bisphosphate phosphodiesterase gamma-1 (Homo sapiens, UniProt P19174). Nature of the test: Counterscreen for inhibitors of phospholipase C isozymes (PLC-B3): Fluorescence-based biochemical high throughput dose response assay to identify inhibitors of phospholipase C isozymes (PLC-gamma1).
In test [16] the target is 1-phosphatidylinositol 4,5-bisphosphate phosphodiesterase beta-3 (Homo sapiens, UniProt Q01970). Kind of test: Fluorescence-based biochemical high throughput dose response assay to identify inhibitors of phospholipase C isozymes (PLC-B3).
For test [17], the target named is Disintegrin and metalloproteinase domain-containing protein 17 (Homo sapiens, UniProt P78536). Kind of test: inhibition of ADAM17 substrate cleavage – biochemical, quenched FRET substrate, counter-screen for ADAM10 exosite inhibitor project, dose response (AID 743253).
For test [18], the system named is HEK293. Kind of test: EBV LMP1 TES2 canonical NF-kB signalling blockers – cell-based, HEK293, luciferase, cherry-pick, dose response (AID 588343). The format is functional. Particulars: Homo sapiens.
A short description of test [19]: reduction of Shn3 3'UTR-driven luciferase in osteoblasts – cell-based, Clone20 osteoblasts, firefly luciferase, cherry-picked, dose response (AID 624132).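 Also: firefly luciferase luminescence from reporter carrying the Shn3 3'UTR in osteoblasts.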 Format: functional.
The nature of test [20]: loss of viability in HepG2 cells – cell-based, CellTiter-Glo, cherry-picked, cytotoxicity control for Shn3 inhibitor project, dose response (AID 624134). Format: functional.
Test [21] is described as follows: non-specific 3'UTR reporter inhibition in Clone20-Shn3RL – cell-based, Renilla luciferase, cherry-picked, counter-screen for Shn3 inhibitor project, dose response (AID 624133). Format: functional.
In test [22] the target is COUP transcription factor 2 (Homo sapiens, UniProt P24468). Kind of test: Luminescence-based cell-based high throughput dose response assay to identify inhibitors of COUP-TFII (NR2F2). The format is functional.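 Also: HEK293 cells transiently cotransfected with COUP-TFII expression vector and reporter; luciferase reporter luminescence driven by COUP-TFII from the pX2-168 reporter plasmid.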
For test [23], the target named is T1, RNA-binding protein pos-1 (Caenorhabditis elegans, UniProt G5EF15).
T1 sequence (G5EF15 whole entry): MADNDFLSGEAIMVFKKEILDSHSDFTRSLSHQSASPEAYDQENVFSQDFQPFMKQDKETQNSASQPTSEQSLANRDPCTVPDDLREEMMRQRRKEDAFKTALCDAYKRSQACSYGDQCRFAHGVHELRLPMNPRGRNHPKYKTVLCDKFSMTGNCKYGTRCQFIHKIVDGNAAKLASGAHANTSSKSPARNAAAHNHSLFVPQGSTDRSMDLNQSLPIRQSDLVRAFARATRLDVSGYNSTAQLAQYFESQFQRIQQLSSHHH
Kind of test: disruptors of C. elegans POS-1 RNA interaction – biochemical, fluorescence polarization, dose response (AID 1964).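 Also: purified POS-1 fused to maltose binding protein made in E. coli; potency of compounds blocking POS-1 binding to fluorescent RNA.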

The target of test [24] is T2, Zinc finger protein mex-5 (Caenorhabditis elegans, UniProt Q9XUB2).
T2 sequence (Q9XUB2 whole entry): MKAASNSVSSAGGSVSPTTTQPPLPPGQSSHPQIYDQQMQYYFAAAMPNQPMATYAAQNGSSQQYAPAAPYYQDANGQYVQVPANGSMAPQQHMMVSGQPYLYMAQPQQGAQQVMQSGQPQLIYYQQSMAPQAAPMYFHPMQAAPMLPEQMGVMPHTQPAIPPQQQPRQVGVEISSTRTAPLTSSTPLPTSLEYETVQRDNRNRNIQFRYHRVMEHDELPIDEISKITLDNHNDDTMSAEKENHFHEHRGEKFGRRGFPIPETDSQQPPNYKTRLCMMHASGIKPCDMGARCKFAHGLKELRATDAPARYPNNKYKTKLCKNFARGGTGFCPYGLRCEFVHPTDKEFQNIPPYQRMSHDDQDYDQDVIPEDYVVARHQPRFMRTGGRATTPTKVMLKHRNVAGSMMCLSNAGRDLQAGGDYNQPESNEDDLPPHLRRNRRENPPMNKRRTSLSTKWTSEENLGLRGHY
Nature of the test: potency of MEX-5 RNA-binding blockers – biochemical, C. elegans, fluorescence polarization, dose response (AID 1960). In general terms: Fluorescence polarisation rises when a labelled molecule tumbles more slowly, as on binding a larger partner.

A short description of another test: cells. Particulars: A549.
In test [25] the target is Tyrosyl-DNA phosphodiesterase 2 (Homo sapiens, UniProt O95551). Nature of the test: potency against TDP2 phosphodiesterase activity – biochemical, epi absorbance, IC50, dose response (AID 743297).
A short description of test [26]: viability loss in HEK293 kidney cells – cell-based, cherry-picks, set 5, cytotoxicity control, dose response (AID 1053117). The format is functional.

Calls of active or inactive are those of the source.

Chain of COUP transcription factor 2 (P24468 whole entry): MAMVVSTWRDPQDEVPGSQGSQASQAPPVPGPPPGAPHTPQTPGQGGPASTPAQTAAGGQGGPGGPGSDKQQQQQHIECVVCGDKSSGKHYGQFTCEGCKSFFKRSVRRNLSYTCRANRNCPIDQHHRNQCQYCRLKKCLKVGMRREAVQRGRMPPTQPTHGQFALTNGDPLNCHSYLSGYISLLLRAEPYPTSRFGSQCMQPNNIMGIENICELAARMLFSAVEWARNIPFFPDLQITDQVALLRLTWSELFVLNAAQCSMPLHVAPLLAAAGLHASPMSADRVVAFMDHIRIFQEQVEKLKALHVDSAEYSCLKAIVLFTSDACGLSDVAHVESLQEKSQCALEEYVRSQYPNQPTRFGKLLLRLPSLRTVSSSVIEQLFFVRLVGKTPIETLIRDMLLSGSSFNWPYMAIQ
Chain of 1-phosphatidylinositol 4,5-bisphosphate phosphodiesterase beta-3 (Q01970 whole entry, the tested form may be a part): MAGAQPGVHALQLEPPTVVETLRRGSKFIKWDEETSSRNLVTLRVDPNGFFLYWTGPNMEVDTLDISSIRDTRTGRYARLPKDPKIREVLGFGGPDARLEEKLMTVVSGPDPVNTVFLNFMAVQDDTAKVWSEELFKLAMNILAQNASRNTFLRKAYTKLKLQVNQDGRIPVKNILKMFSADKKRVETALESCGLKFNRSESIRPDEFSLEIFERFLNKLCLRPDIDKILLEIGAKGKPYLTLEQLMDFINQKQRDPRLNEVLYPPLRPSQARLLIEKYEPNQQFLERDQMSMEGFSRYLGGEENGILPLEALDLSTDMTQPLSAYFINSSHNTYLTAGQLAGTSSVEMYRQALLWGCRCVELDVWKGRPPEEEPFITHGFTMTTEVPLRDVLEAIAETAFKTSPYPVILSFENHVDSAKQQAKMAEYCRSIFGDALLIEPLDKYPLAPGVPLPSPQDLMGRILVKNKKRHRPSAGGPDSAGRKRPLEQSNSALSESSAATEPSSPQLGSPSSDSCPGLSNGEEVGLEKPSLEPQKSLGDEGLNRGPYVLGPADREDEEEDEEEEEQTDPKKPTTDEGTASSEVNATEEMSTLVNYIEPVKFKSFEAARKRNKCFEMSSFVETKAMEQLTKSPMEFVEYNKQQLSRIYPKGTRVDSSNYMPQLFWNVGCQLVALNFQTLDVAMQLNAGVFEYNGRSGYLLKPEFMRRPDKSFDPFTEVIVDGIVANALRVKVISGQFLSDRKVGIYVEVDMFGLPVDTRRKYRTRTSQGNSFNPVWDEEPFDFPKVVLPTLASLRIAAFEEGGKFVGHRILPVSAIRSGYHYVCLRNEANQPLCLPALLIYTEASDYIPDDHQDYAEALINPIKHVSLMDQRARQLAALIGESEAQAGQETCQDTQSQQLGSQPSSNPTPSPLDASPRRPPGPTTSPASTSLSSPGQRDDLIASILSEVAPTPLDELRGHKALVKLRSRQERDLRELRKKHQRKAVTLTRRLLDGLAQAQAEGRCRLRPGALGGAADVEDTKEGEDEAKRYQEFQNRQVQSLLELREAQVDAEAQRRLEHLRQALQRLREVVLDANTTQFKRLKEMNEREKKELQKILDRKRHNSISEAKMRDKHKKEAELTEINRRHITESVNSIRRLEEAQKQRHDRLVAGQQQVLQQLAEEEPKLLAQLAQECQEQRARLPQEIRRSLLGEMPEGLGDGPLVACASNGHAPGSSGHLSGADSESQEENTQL
Chain of NAD-dependent protein deacylase sirtuin-5, mitochondrial (Q9NXA8 whole entry, the tested form may be a part): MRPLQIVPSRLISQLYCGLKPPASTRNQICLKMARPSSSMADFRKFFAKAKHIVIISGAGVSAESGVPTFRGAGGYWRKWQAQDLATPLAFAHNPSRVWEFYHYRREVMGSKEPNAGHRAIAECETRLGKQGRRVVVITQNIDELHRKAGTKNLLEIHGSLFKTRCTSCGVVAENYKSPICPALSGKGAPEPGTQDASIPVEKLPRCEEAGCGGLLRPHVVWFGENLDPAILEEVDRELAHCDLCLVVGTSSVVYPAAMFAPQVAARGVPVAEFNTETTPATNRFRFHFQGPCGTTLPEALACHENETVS
Chain of Tyrosyl-DNA phosphodiesterase 2 (O95551 whole entry): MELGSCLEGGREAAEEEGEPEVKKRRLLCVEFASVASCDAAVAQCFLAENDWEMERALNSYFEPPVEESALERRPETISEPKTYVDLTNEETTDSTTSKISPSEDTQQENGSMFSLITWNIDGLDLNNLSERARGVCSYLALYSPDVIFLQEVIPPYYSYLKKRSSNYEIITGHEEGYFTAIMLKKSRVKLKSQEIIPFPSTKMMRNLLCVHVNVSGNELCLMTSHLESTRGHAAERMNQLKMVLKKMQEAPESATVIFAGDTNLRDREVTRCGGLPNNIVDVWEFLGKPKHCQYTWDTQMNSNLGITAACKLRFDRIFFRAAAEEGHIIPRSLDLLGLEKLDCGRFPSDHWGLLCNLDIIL
Chain of Disintegrin and metalloproteinase domain-containing protein 17 (P78536 whole entry, the tested form may be a part): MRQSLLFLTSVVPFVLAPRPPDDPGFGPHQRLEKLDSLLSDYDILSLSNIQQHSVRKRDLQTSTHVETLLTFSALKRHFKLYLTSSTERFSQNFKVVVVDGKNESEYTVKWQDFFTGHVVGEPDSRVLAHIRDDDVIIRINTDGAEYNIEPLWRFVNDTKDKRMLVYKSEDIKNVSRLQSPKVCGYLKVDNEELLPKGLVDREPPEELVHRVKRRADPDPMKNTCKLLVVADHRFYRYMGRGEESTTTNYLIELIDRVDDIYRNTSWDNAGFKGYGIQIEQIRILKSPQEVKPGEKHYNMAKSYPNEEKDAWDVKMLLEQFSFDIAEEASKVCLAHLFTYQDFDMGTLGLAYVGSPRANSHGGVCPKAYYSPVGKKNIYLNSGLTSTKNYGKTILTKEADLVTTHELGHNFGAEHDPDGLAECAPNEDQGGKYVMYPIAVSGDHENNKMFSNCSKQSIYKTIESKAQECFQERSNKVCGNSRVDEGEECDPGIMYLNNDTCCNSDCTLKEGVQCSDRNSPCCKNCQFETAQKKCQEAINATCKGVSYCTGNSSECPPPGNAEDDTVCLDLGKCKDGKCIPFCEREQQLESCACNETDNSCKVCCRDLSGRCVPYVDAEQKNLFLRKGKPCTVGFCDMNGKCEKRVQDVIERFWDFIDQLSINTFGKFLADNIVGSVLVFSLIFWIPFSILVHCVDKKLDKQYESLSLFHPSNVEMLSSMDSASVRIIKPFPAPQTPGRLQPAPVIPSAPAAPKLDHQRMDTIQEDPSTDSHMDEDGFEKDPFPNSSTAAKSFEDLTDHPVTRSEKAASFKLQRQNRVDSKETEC
Chain of 1-phosphatidylinositol 4,5-bisphosphate phosphodiesterase gamma-1 (P19174 whole entry): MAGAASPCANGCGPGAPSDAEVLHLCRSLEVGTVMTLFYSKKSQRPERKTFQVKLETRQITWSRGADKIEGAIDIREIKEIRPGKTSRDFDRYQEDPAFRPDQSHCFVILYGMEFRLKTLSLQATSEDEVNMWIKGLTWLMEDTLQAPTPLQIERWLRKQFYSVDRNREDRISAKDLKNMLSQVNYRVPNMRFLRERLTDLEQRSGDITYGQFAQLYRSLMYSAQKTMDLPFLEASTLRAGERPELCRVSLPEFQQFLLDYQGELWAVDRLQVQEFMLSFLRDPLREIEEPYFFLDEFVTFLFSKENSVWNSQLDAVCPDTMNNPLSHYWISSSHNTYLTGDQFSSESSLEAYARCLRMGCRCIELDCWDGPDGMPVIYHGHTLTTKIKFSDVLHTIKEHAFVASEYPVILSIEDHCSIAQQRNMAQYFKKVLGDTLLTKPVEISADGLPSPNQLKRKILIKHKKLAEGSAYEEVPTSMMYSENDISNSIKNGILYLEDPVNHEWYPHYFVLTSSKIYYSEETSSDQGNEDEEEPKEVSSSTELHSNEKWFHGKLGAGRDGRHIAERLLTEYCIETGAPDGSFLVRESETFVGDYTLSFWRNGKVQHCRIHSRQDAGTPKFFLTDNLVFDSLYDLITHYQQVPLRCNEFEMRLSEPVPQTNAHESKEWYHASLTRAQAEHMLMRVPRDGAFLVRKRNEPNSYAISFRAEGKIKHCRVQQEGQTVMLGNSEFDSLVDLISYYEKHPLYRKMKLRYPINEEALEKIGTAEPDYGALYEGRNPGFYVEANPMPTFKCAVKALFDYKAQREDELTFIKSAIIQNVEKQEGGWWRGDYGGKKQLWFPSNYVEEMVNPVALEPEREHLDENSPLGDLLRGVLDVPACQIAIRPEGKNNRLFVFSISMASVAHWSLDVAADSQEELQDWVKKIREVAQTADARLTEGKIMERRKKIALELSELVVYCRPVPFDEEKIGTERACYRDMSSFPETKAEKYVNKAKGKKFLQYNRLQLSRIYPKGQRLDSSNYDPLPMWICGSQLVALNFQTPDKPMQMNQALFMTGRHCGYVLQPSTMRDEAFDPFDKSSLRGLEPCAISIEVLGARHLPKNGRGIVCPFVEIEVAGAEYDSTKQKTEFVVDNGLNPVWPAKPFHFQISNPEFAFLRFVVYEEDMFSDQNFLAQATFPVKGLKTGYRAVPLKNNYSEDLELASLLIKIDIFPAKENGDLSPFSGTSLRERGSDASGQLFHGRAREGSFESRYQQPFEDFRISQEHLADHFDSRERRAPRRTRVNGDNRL

Take `CC(C)(C)NC(=O)CSc1nc2cccnc2n1C1CCCCC1`: in test [1], the AC50 is > 30 µM (inactive).
As to `CC(=O)Nc1ccc(N(CC(O)Cn2c3ccccc3c3ccccc32)S(=O)(=O)c2ccc(C)cc2)cc1` (stereo unspecified), the AC50 in [2] was 0.507 µM (active); in test [3], 28.4 µM (active); in test [4] it was 0.558 µM (active); in test [5] it was 1.6 µM (active); in test [6], 2.8 µM (active). Also, the EC50 in the test on HEK293 [7] and in the test with HEK293 [8] was > 59.7 µM (inactive) throughout.
As to `C[C@@H]1CN([C@@H](C)CO)C(=O)c2c(c3ccccc3n2C)-c2ccccc2CO[C@@H]1CN(C)C(=O)Nc1cccc(Cl)c1Cl`, the AC50 is 1.62 µM (active) in test [9]; 23.5 µM (active) in test [10]; 1.52 µM (active) in test [11]; 0.85 µM (active) in test [12]; 0.572 µM (active) in test [13].
In the case of `CN1C(=O)c2cc(NS(=O)(=O)c3ccc(F)cc3)ccc2OC[C@H]2O[C@@H](CC(=O)NCC(F)(F)F)CC[C@@H]21`, the IC50 was > 69.6 µM (inactive) in test [14], 45.1 µM (inactive) in test [15], 47.2 µM (inactive) in [16] and > 69.6 µM (inactive) in [17].
As for `COc1ccc(CNc2ncnc3ccccc23)cc1`, the AC50 is 33.1 µM (active) with HEK293 [18]; 0.674 µM (active) in [19]; 3.67 µM (active) in test [20]; 5.4 µM (active) in [21]; 36.2 µM (active) in test [2]; 24.9 µM (active) in test [4]. Besides, the AC50 in test [5] was > 70 µM (inactive); in [6] it was 5.24 µM (active). In [22], the IC50 was 10.7 µM (inactive).
On to `O=C1c2ccccc2S(=O)(=O)c2cc(N3CCC(C(=O)N4CCCCC4)CC3)ccc21`, for which the EC50 in test [23] and in test [24] was > 300 µM (not active) in each case. In addition, the AC50 in “cells” is > 52 µM (inactive).
`COC1=C(N2CCOCC2)C(=O)c2ccccc2C1=O`: the IC50 in test [25] is 77.2 µM (inactive).
For the compound `C=CCC[C@H](Cc1ccc(F)cc1)C(=O)OC[C@H](Cc1c[nH]c2ccccc12)NC(=O)[C@@H](CC=C)CC(=O)N[C@@H](CO)Cc1ccccc1`, the AC50 in [26] is > 52 µM (inactive).

As usually defined, the AC50 is the concentration giving half of the maximal activity seen. For orientation: EC50 means the concentration at which the effect is half-maximal. Usually IC50 stands for the midpoint of a concentration-inhibition curve.
